{"source": "patent US20050192308A1", "about": "(priority 2001, published 2005)", "target": "Mu opioid receptor (Homo sapiens, UniProt P35372)", "sequence (P35372 whole entry)": "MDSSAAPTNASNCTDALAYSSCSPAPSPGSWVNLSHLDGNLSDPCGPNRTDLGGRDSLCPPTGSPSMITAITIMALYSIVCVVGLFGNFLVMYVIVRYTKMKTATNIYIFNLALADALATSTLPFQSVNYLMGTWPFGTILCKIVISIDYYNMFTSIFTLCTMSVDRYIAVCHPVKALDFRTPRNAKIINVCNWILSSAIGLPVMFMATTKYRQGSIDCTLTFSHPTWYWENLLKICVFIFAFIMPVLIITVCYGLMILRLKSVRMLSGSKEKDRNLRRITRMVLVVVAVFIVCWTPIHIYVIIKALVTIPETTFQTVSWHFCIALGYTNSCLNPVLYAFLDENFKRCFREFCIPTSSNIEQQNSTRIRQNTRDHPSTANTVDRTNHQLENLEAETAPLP"}
{"smiles": "C[C@@H](NC(=O)[C@@H](N)Cc1ccc(O)cc1)C(=O)NCC(=O)N(C)[C@@H](Cc1ccccc1)C(=O)NCCO", "note": "[DAMGO Control, DAMGO]", "values": [{"measurement": "Functional GTPgS Mu Efficacy % DAMGO", "result": "100 ± 0", "unit": "%"}]}
